Source: patent US20250243488A1, “METHODS OF MODULATING PROGRANULIN EXPRESSION USING ANTISENSE OLIGONUCLEOTIDES TARGETING REGULATORY RNAS” (Camp4 Therapeutics Corporation, priority 2022, published 2025)
Oligonucleotides are written 5' to 3', each unit as a sugar letter and its base; * is a phosphorothioate linkage, no mark a phosphodiester; rarer units and linkages stand in square brackets, end groups in braces. Plain capitals give the bases only. e = 2'-O-(2-methoxyethyl) (MOE); l = locked nucleic acid (LNA); [5mC] = 5-methylcytosine; d = 2'-deoxy (DNA)

Tested on: GRN mRNA
Assay: GRN mRNA qPCR in SK-N-AS cells transfected with ASOs
Format: cell-based, human
Settings: for hGRN mRNA FC / 30 nM FC (GRN mRNA) / 60 nM FC (GRN mRNA) / 120 nM FC (GRN mRNA): SK-N-AS; for hGRN mRNA FC / 120 nM FC (GRN mRNA): 120 nM
Outline: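 Fold change in GRN mRNA, by qPCR with GAPDH/PPIA housekeeping normalization, referenced to steric non-targeting control ASO(s) such as CO-1589. ASOs were transfected into SK-N-AS neuroblastoma cells in dose titrations (20 to 160 nM initially). Cells were harvested 48 hours post-transfection.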

[1] = Table 11, 48 hours, normalized to CO-1589
[2] = Table 9, 48 hours post-transfection, normalized to CO-1589
[3] = Table 12, normalized to CO-1589
[4] = Table 13, normalized to CO-1589
[5] = Table 4, normalized to CO-3772 and CO-1589 (sNTC1)

CO-6454: ASO designed to target an intragenic enhancer RNA (eRNA) (e[5mC]*e[5mC]*eA*eA*eG*eT*eG*eT*eA*eG*eG*eA*eA*eA*eA*eA*eG*eT*eT*eT)
hGRN mRNA FC [1]: 1.0 FC

CO-4616: ASO designed to target intergenic enhancers (eRNA) (antisense eA*eA*eG*eA*eA*eG*eG*e[5mC]*e[5mC]*eA*eA*eG*e[5mC]*eT*eG*eG*eT*eA*e[5mC]*e[5mC])
hGRN mRNA FC [2]: 1.2 FC

CO-4588: ASO designed to target intergenic enhancers (eRNA) (antisense eG*e[5mC]*eT*eG*eG*eT*eT*eT*e[5mC]*eT*e[5mC]*eT*eG*eT*eT*eA*eG*eG*eA*e[5mC])
hGRN mRNA FC [2]: 0.9 FC

CO-4640: ASO designed to target intergenic enhancers (eRNA) (antisense eG*e[5mC]*e[5mC]*e[5mC]*e[5mC]*e[5mC]*eT*eA*eG*eA*eG*eG*eA*e[5mC]*eA*eT*eT*eT*eT*eT)
hGRN mRNA FC [2]: 1.0 FC

CO-8877: hGRN regRNA-targeting ASO with additional chemical modifications (antisense eT*eA*lG*e[5mC]*eA*dA*dA*d[5mC]*dT*d[5mC]*d[5mC]*d[5mC]*d[5mC]*d[5mC]*dA*eG*eG*l[5mC]*eG*e[5mC])
GRN mRNA expression in SK-N-AS cells (3.75 to 90 nM, 48 hours post-transfection, normalized to sNTC (FIGS. 26A, 26B)): dose-dependent increase

CO-4604: ASO designed to target intergenic enhancers (eRNA) (antisense eT*e[5mC]*eT*e[5mC]*e[5mC]*eG*eA*eT*e[5mC]*e[5mC]*e[5mC]*eG*e[5mC]*eT*eT*eG*eT*e[5mC]*eA*eG)
hGRN mRNA FC [2]: 1.2 FC

CO-4612: ASO designed to target intergenic enhancers (eRNA) (antisense eA*eT*eG*eG*e[5mC]*eT*eA*eA*eA*eA*e[5mC]*eT*eA*e[5mC]*e[5mC]*eT*eT*e[5mC]*e[5mC]*eA)
hGRN mRNA FC [2]: 1.0 FC

CO-4598: ASO designed to target intergenic enhancers (eRNA) (antisense eG*eT*eG*e[5mC]*eA*eA*eT*e[5mC]*eT*eG*eT*eG*eA*e[5mC]*e[5mC]*eT*eG*eT*eA*eA)
hGRN mRNA FC [2]: 1.1 FC

CO-6401: ASO based on parent ASO CO-3462 (antisense eG*eT*eA*eG*eG*dA*dG*dA*eA*dT*d[5mC]*dG*d[5mC]*eT*dT*dT*dG*eG*eG*eA*eG*e[5mC])
30 nM FC (GRN mRNA) [3]: 1.2 FC | 60 nM FC (GRN mRNA) [3]: 1.5 FC | 120 nM FC (GRN mRNA) [3]: 1.7 FC

CO-4623: ASO designed to target intergenic enhancers (eRNA) (antisense e[5mC]*e[5mC]*eT*eG*eA*e[5mC]*e[5mC]*eT*eG*e[5mC]*e[5mC]*eA*eT*e[5mC]*eT*eA*eT*e[5mC]*eA*eA)
hGRN mRNA FC [2]: 1.1 FC

CO-4608: ASO designed to target intergenic enhancers (eRNA) (antisense eT*eA*eG*eA*e[5mC]*eA*e[5mC]*eT*eT*e[5mC]*e[5mC]*eA*eG*e[5mC]*e[5mC]*e[5mC]*eA*e[5mC]*e[5mC]*eT)
hGRN mRNA FC [2]: 1.1 FC

CO-4626: ASO designed to target intergenic enhancers (eRNA) (antisense e[5mC]*e[5mC]*eT*e[5mC]*eA*eT*eG*eT*eA*eT*eG*eT*eA*eA*eT*eT*eG*e[5mC]*e[5mC]*e[5mC])
hGRN mRNA FC [2]: 1.0 FC

CO-4643: ASO designed to target intergenic enhancers (eRNA) (antisense e[5mC]*eG*eG*e[5mC]*eA*eT*eT*e[5mC]*e[5mC]*e[5mC]*eT*eG*eA*e[5mC]*e[5mC]*eT*eA*eT*e[5mC]*e[5mC])
hGRN mRNA FC [2]: 0.9 FC

CO-6427: ASO based on parent ASOs CO-4363 and CO-4364 (eG*eG*eG*eA*e[5mC]*eT*eT*eG*eG*eG*eA*eG*eT*eG*eG*eT*eG*eA*e[5mC]*eT*eG*eA*eA*e[5mC]*e[5mC])
30 nM FC (GRN mRNA) [4]: 1.2 FC | 60 nM FC (GRN mRNA) [4]: 1.1 FC | 120 nM FC (GRN mRNA) [4]: 1.2 FC

CO-6436: ASO designed to target an intragenic enhancer RNA (eRNA) (eT*eG*eT*e[5mC]*e[5mC]*e[5mC]*e[5mC]*eA*e[5mC]*eT*e[5mC]*eA*eG*eG*e[5mC]*e[5mC]*eA*e[5mC]*e[5mC]*eT)
hGRN mRNA FC [1]: 1.1 FC

CO-6523: ASO based on parent ASO CO-3462 (antisense eT*eA*eG*eG*eA*eG*eA*eA*eT*e[5mC]*eG*e[5mC]*eT*eTeTeGeGeG*eA*eG)
30 nM FC (GRN mRNA) [3]: 2.9 FC | 60 nM FC (GRN mRNA) [3]: 1.4 FC | 120 nM FC (GRN mRNA) [3]: 1.3 FC

CO-4586: ASO designed to target intergenic enhancers (eRNA) (antisense eT*eG*eA*e[5mC]*eA*eA*eG*e[5mC]*eG*eG*eG*eA*eT*e[5mC]*eG*eG*eA*eG*eA*eG)
hGRN mRNA FC [2]: 0.9 FC

CO-6455: ASO designed to target an intragenic enhancer RNA (eRNA) (e[5mC]*eT*e[5mC]*eA*eT*eT*eG*eA*e[5mC]*eT*e[5mC]*e[5mC]*eA*eA*eG*eT*eG*eT*eA*eG)
hGRN mRNA FC [1]: 0.9 FC

CO-6409: ASO based on parent ASO CO-3462 (antisense eT*eA*eGeG*eA*eGeA*eA*eTe[5mC]*eG*e[5mC]eT*eT*eTeG*eG*eGeA*eG)
30 nM FC (GRN mRNA) [3]: 1.1 FC | 60 nM FC (GRN mRNA) [3]: 1.1 FC | 120 nM FC (GRN mRNA) [3]: 1.5 FC

CO-6392: ASO based on parent ASO CO-3462 (antisense eT*eA*eG*lG*eA*lG*eA*lA*eT*l[5mC]*eG*l[5mC]*eT*lT*eT*lG*eG*lG*eA*eG)
30 nM FC (GRN mRNA) [3]: 1.0 FC | 60 nM FC (GRN mRNA) [3]: 0.8 FC | 120 nM FC (GRN mRNA) [3]: 1.0 FC

CO-6383: ASO based on parent ASO CO-3462 (antisense eT*eA*eG*eG*eA*dG*dA*dA*dT*d[5mC]*dG*d[5mC]*dT*dT*dT*eG*eG*eG*eA*eG)
30 nM FC (GRN mRNA) [3]: 1.2 FC | 60 nM FC (GRN mRNA) [3]: 1.0 FC | 120 nM FC (GRN mRNA) [3]: 1.2 FC

CO-4361: longer ASO based on CO-3423 (antisense eG*eA*e[5mC]*eT*eT*dG*dG*dG*dA*dG*dT*dG*dG*dT*dG*eA*e[5mC]*eT*eG*eA)
30 nM FC (GRN mRNA) [5]: 1.1 FC | 60 nM FC (GRN mRNA) [5]: 1.3 FC | 120 nM FC (GRN mRNA) [5]: 1.6 FC

CO-4634: ASO designed to target intergenic enhancers (eRNA) (antisense eT*eT*eT*eA*e[5mC]*e[5mC]*e[5mC]*eA*eT*eA*eT*eA*e[5mC]*e[5mC]*e[5mC]*eA*e[5mC]*eA*e[5mC]*e[5mC])
hGRN mRNA FC [2]: 1.1 FC

CO-6444: ASO designed to target an intragenic enhancer RNA (eRNA) (eT*eG*e[5mC]*e[5mC]*e[5mC]*eA*eA*eT*eG*e[5mC]*e[5mC]*e[5mC]*eA*eA*e[5mC]*eG*eT*eG*eA*eG)
hGRN mRNA FC [1]: 1.0 FC

CO-6410: ASO based on parent ASO CO-3462 (antisense eT*eAeG*eG*eAeG*eA*eAeT*e[5mC]*eGe[5mC]*eT*eTeT*eG*eGeG*eA*eG)
30 nM FC (GRN mRNA) [3]: 1.1 FC | 60 nM FC (GRN mRNA) [3]: 1.0 FC | 120 nM FC (GRN mRNA) [3]: 1.6 FC

CO-6515: ASO based on parent ASO CO-3462 (antisense eT*eA*eGeGeAeGeAeAeTe[5mC]eGe[5mC]eT*eT*eT*eG*eG*eG*eA*eG)
30 nM FC (GRN mRNA) [3]: 1.2 FC | 60 nM FC (GRN mRNA) [3]: 1.8 FC | 120 nM FC (GRN mRNA) [3]: 1.7 FC

CO-4648: ASO designed to target intergenic enhancers (eRNA) (antisense eA*e[5mC]*eG*e[5mC]*e[5mC]*eA*eA*eA*e[5mC]*e[5mC]*e[5mC]*eT*eT*eG*eA*eT*e[5mC]*e[5mC]*eA*eG)
hGRN mRNA FC [2]: 1.6 FC

CO-6513: ASO based on parent ASO CO-3462 (antisense eT*eA*eGeGeAeGeAeAeT*e[5mC]*eG*e[5mC]*eT*eT*eT*eG*eG*eG*eA*eG)
30 nM FC (GRN mRNA) [3]: 1.3 FC | 60 nM FC (GRN mRNA) [3]: 2.7 FC | 120 nM FC (GRN mRNA) [3]: 1.8 FC

CO-6430: ASO designed to target an intragenic enhancer RNA (eRNA) (eT*eG*e[5mC]*eG*e[5mC]*eA*e[5mC]*eA*e[5mC]*eA*eG*eG*eT*eA*e[5mC]*e[5mC]*eA*eG*eA*eG)
hGRN mRNA FC [1]: 1.0 FC

CO-6419: ASO based on parent ASOs CO-4363 and CO-4364 (eG*eG*eA*e[5mC]*eT*dT*dG*dG*dG*dA*dG*dT*dG*dG*dT*dG*dA*d[5mC]*eT*eG*eA*eA*e[5mC])
30 nM FC (GRN mRNA) [4]: 1.0 FC | 60 nM FC (GRN mRNA) [4]: 1.0 FC | 120 nM FC (GRN mRNA) [4]: 0.9 FC

CO-6451: ASO designed to target an intragenic enhancer RNA (eRNA) (eA*e[5mC]*eG*eT*eT*eT*eG*e[5mC]*eT*e[5mC]*e[5mC]*eT*e[5mC]*eT*eT*e[5mC]*e[5mC]*eA*eG*eT)
hGRN mRNA FC [1]: 1.0 FC

CO-6425: ASO based on parent ASOs CO-4363 and CO-4364 (eG*eG*eG*eA*e[5mC]*eT*eT*eG*eG*eG*eA*eG*eT*eG*eG*eT*eG*eA*e[5mC]*eT*eG*eA*eA*e[5mC])
30 nM FC (GRN mRNA) [4]: 0.9 FC | 60 nM FC (GRN mRNA) [4]: 1.3 FC | 120 nM FC (GRN mRNA) [4]: 1.3 FC

CO-4607: ASO designed to target intergenic enhancers (eRNA) (antisense eA*eA*eG*eA*eA*eA*eT*eA*eG*eA*eT*eT*eA*e[5mC]*e[5mC]*e[5mC]*e[5mC]*eG*eT*eT)
hGRN mRNA FC [2]: 1.1 FC
